Results reported in patent publication US10934310B2, “Inhibitors of Bruton's tyrosine kinase and method of their use” (JANSSEN PHARMACEUTICA NV, priority 2015, dated 2021).

molecular target: unphosphorylated-BTK kinase domain (UP-BTK), GST-tagged human BTK (389-659aa) (Homo sapiens (Human), UniProt Q06187); experiment: BTK Kinase Lanthascreen Binding Assay; details: Lanthascreen binding, 60 minutes incubation; pIC50 = negative log of the IC50 in molar
Method: BTK Kinase Lanthascreen Binding Assay:
A BTK kinase lanthascreen binding assay monitors compound binding to unphosphorylated-BTK kinase domain (UP-BTK), by competing with a fluorescent labeled tracer. […] Data were analyzed using Xlfit™ version 5.3 from ID Business Solutions (Guildford), Microsoft Excel add-in. pIC50 refers to the negative log of the IC50 in molar.

Chain of unphosphorylated-BTK kinase domain (UP-BTK), GST-tagged human BTK (389-659aa) (Q06187 389-659): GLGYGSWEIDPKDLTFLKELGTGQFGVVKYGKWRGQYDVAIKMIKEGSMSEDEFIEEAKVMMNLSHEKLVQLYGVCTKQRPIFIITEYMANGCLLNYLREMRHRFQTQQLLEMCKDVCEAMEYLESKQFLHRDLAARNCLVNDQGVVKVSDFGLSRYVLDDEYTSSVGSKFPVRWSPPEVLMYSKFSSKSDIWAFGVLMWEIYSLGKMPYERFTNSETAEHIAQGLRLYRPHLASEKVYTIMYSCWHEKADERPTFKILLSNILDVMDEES

SMILES | BTK_I_binding pIC50
C=CC(=O)N[C@@H]1CCC[C@@H](NC(=O)c2sc3nccc4c3c2NC(=O)N4c2ccc(Oc3ccccc3)cn2)C1 (relative stereo) [Example 344, N-((1*R,3*R)-3-Acrylamidocyclohexyl)-4-oxo-5-(5-phenoxypyridin-2-yl)-4,5-dihydro-3H-1-thia-3,5,8-triazaacenaphthylene-2-carboxamide] | 6.11
CCC(=O)N[C@H]1CCCC[C@H]1NC(=O)c1sc2nccc3c2c1NC(=O)N3c1cnc(Oc2ccccc2)cc1C (relative stereo) [Example 381, 5-(*S)-(4-Methyl-6-phenoxypyridin-3-yl)-4-oxo-N-((1R,2S)-2-propionamidocyclohexyl)-4,5-dihydro-3H-1-thia-3,5,8-triazaacenaphthylene-2-carboxamide] | 6.75

same assay, conditions: compound, 50 nM Tracer 236, 2 nM anti-GST antibody, 60 minutes; pIC50 = negative log of the IC50 in molar

BTK_I_binding pIC50 | SMILES
6.42 | CNC1CC[C@H](NC(=O)c2sc3nccc4c3c2NC(=O)N4c2ccc(Oc3ccccc3)cc2C)C1 (mixture of isomers) [Example 80, 5-(2-Methyl-4-phenoxyphenyl)-N-((1S)-3-(methylamino)cyclopentyl)-4-oxo-4,5-dihydro-3H-1-thia-3,5,8-triazaacenaphthylene-2-carboxamide]
7.31 | Cc1cc(Oc2ccccc2)ccc1N1C(=O)Nc2c(C(=O)N[C@@H]3CCCC[C@@H]3N(C)C)sc3nccc1c23 (relative stereo) [Example 7, N-((1R,2S)-2-(Dimethylamino)cyclohexyl)-5-(*S)-(2-methyl-4-phenoxyphenyl)-4-oxo-4,5-dihydro-3H-1-thia-3,5,8-triazaacenaphthylene-2-carboxamide]
7.89 | CC(=O)N[C@@H]1CC[C@H](NC(=O)c2sc3nccc4c3c2NC(=O)N4c2ccc(Oc3ccccc3)cc2C)C1 (relative stereo) [Example 88, N-((1S,3R)-3-Acetamidocyclopentyl)-5-(*S)-(2-methyl-4-phenoxyphenyl)-4-oxo-4,5-dihydro-3H-1-thia-3,5,8-triazaacenaphthylene-2-carboxamide]
6.75 | CNCC(=O)N[C@H]1CCC[C@H](NC(=O)c2sc3nccc4c3c2NC(=O)N4c2ccc(Oc3ccccc3)cc2C)C1 (relative stereo) [Example 250, 5-(*S)-(2-Methyl-4-phenoxyphenyl)-N-((1R,3S)-3-(2-(methylamino)acetamido)cyclohexyl)-4-oxo-4,5-dihydro-3H-1-thia-3,5,8-triazaacenaphthylene-2-carboxamide]
7.61 | C=CC(=O)N[C@H]1CC[C@@H](NC(=O)c2sc3nccc4c3c2NC(=O)N4c2ccc(Oc3ccccc3)cc2C)CC1 (single isomer, unassigned) [Example 1, N-((1S,4S)-4-Acrylamidocyclohexyl)-5-(*S)-(2-methyl-4-phenoxyphenyl)-4-oxo-4,5-dihydro-3H-1-thia-3,5,8-triazaacenaphthylene-2-carboxamide]
7.69 | Cc1cc(Oc2ccccc2)ccc1N1C(=O)Nc2c(C(=O)N[C@@H]3CCCC[C@@H]3N)sc3nccc1c23 (single isomer, unassigned) [Example 5, N-((1R,2S)-2-Aminocyclohexyl)-5-(*S)-(2-methyl-4-phenoxyphenyl)-4-oxo-4,5-dihydro-3H-1-thia-3,5,8-triazaacenaphthylene-2-carboxamide]
7.95 | Cc1cc(Oc2ccccc2)ccc1N1C(=O)Nc2c(C(=O)N[C@@H]3CCC[C@@H]3O)sc3nccc1c23 (single isomer, unassigned) [Example 8, N-((1R,2S)-2-Hydroxycyclopentyl)-5-(*S)-(2-methyl-4-phenoxyphenyl)-4-oxo-4,5-dihydro-3H-1-thia-3,5,8-triazaacenaphthylene-2-carboxamide]
5.77 | C=CC(=O)N[C@H]1CCC[C@@H]1NC(=O)c1sc2nccc3c2c1NC(=O)N3c1ccc(Oc2ccccc2)cc1C (single isomer, unassigned) [Example 56, N-((1S,2S)-2-Acrylamidocyclopentyl)-5-(*R)-(2-methyl-4-phenoxyphenyl)-4-oxo-4,5-dihydro-3H-1-thia-3,5,8-triazaacenaphthylene-2-carboxamide]
5.36 | Cc1cc(Oc2ccccc2)ccc1N1C(=O)Nc2c(C(=O)N[C@@H]3CCC[C@H]3O)sc3nccc1c23 (single isomer, unassigned) [Example 61, N-((1R,2R)-2-Hydroxycyclopentyl)-5-(*R)-(2-methyl-4-phenoxyphenyl)-4-oxo-4,5-dihydro-3H-1-thia-3,5,8-triazaacenaphthylene-2-carboxamide]
7.41 | CC(=O)N[C@@H]1CCC[C@H]1NC(=O)c1sc2nccc3c2c1NC(=O)N3c1ccc(Oc2ccccc2)cc1C (single isomer, unassigned) [Example 67, N-((1R,2R)-2-Acetamidocyclopentyl)-5-(*S)-(2-methyl-4-phenoxyphenyl)-4-oxo-4,5-dihydro-3H-1-thia-3,5,8-triazaacenaphthylene-2-carboxamide]

SMILES | BTK_I_binding pIC50
Cc1cc(Oc2ccccc2)ccc1N1C(=O)Nc2c(C(=O)N[C@H]3CC[C@@H](O)CC3)sc3nccc1c23 (single isomer, unassigned) [Example 83, N-((1S,4S)-4-Hydroxycyclohexyl)-5-(*S)-(2-methyl-4-phenoxyphenyl)-4-oxo-4,5-dihydro-3H-1-thia-3,5,8-triazaacenaphthylene-2-carboxamide] | 7.60
Cc1cc(Oc2ccccc2)ccc1N1C(=O)Nc2c(C(=O)N[C@H]3CC[C@@H](O)CC3)sc3nccc1c23 (single isomer, unassigned) [Example 84, N-((1S,4S)-4-Hydroxycyclohexyl)-5-(*R)-(2-methyl-4-phenoxyphenyl)-4-oxo-4,5-dihydro-3H-1-thia-3,5,8-triazaacenaphthylene-2-carboxamide] | 6.21
Cc1cc(Oc2ccccc2)ccc1N1C(=O)Nc2c(C(=O)N[C@H]3CC[C@H](O)CC3)sc3nccc1c23 (single isomer, unassigned) [Example 85, N-((1R,4R)-4-Hydroxycyclohexyl)-5-(*S)-(2-methyl-4-phenoxyphenyl)-4-oxo-4,5-dihydro-3H-1-thia-3,5,8-triazaacenaphthylene-2-carboxamide] | 7.67

same assay, conditions: read-out: BTK_I_binding pIC50 (converted)

IC50 [nM] | SMILES
110 | Cc1cc(Oc2ccccc2)ccc1N1C(=O)Nc2c(C(=O)NC3CCCCC3O)sc3nccc1c23 (racemic) [Example 27, N-((1RS,2RS)-2-Hydroxycyclohexyl)-5-(2-methyl-4-phenoxyphenyl)-4-oxo-4,5-dihydro-3H-1-thia-3,5,8-triazaacenaphthylene-2-carboxamide]
191 | Cc1cc(Oc2ccccc2)ccc1N1C(=O)Nc2c(C(=O)N[C@H]3CCCC[C@@H]3O)sc3nccc1c23 (racemic) [Example 36, N-((1RS,2RS)-2-Hydroxycyclohexyl)-5-(2-methyl-4-phenoxyphenyl)-4-oxo-4,5-dihydro-3H-1-thia-3,5,8-triazaacenaphthylene-2-carboxamide]
14.1 | C=CC(=O)NC1CCC(NC(=O)c2sc3nccc4c3c2NC(=O)N4c2ccc(Oc3ccccc3)cc2)C1 (racemic) [Example 109, N-((1RS,3RS)-3-Acrylamidocyclopentyl)-4-oxo-5-(4-phenoxyphenyl)-4,5-dihydro-3H-1-thia-3,5,8-triazaacenaphthylene-2-carboxamide]
234 | N[C@@H]1CC[C@@H](NC(=O)c2sc3nccc4c3c2NC(=O)N4c2ccc(Oc3ccccc3)cc2)C1 (racemic) [Example 147, trans-N-((1RS,3RS)-3-Aminocyclopentyl)-4-oxo-5-(4-phenoxyphenyl)-4,5-dihydro-3H-1-thia-3,5,8-triazaacenaphthylene-2-carboxamide]
77.6 | C=CC(=O)N[C@@H]1CC[C@@H](NC(=O)c2sc3nccc4c3c2NC(=O)N4c2ccc(Oc3ccccc3)nc2)C1 (racemic) [Example 188, N-((1RS,3RS)-3-Acrylamidocyclopentyl)-4-oxo-5-(6-phenoxypyridin-3-yl)-4,5-dihydro-3H-1-thia-3,5,8-triazaacenaphthylene-2-carboxamide]
14.1 | C=CC(=O)NC1CCC(NC(=O)c2sc3nccc4c3c2NC(=O)N4c2ccc(Oc3ccccc3)cn2)C1 (racemic) [Example 214, N-((1RS,3RS)-3-Acrylamidocyclopentyl)-4-oxo-5-(5-phenoxypyridin-2-yl)-4,5-dihydro-3H-1-thia-3,5,8-triazaacenaphthylene-2-carboxamide]
1700 | N[C@@H]1CC[C@H](NC(=O)c2sc3nccc4c3c2NC(=O)N4c2ccc(Oc3ccccc3)nc2)C1 (racemic) [Example 289, racemic cis N-((1RS,3RS)-3-Aminocyclopentyl)-4-oxo-5-(6-phenoxypyridin-3-yl)-4,5-dihydro-3H-1-thia-3,5,8-triazaacenaphthylene-2-carboxamide]
2240 | N[C@H]1CC[C@H](NC(=O)c2sc3nccc4c3c2NC(=O)N4c2ccc(Oc3ccccc3)nc2)C1 (racemic) [Example 290, racemic trans N-((1RS,3RS)-3-Aminocyclopentyl)-4-oxo-5-(6-phenoxypyridin-3-yl)-4,5-dihydro-3H-1-thia-3,5,8-triazaacenaphthylene-2-carboxamide]

SMILES | IC50 [nM]
N[C@H]1CC[C@@H](NC(=O)c2sc3nccc4c3c2NC(=O)N4c2ccc(Oc3ccccc3)cc2)C1 (racemic) [Example 96, N-(rac-(1,3-cis)-3-Aminocyclopentyl)-4-oxo-5-(4-phenoxyphenyl)-4,5-dihydro-3H-1-thia-3,5,8-triazaacenaphthylene-2-carboxamide] | 77.6
C=CC(=O)N[C@@H]1CCC[C@@H](NC(=O)c2sc3nccc4c3c2NC(=O)N4c2ccc(Oc3ccccc3)cn2)C1 (racemic) [Example 216, N-((1RS,3RS)-3-Acrylamidocyclohexyl)-4-oxo-5-(5-phenoxypyridin-2-yl)-4,5-dihydro-3H-1-thia-3,5,8-triazaacenaphthylene-2-carboxamide] | 36.3
